# Test results from patent US20160011174A1, “Assay for Determining the Cell Number in Cultured Cells” (KEELE UNIVERSITY, priority 2013, published 2016).
# How the values were obtained:
# hepG2 cells [1] = test: Removal of added AA from DMEM medium by hepG2 cells (SIFT-MS headspace); assay type: in vitro ADME, human; conditions: 20 million hepG2 cells; for headspace AA concentration after incubation with cells: 16 hours
# Method: (§1) The inhibitor solutions were then added to volumes of medium so that the final DMSO concentration was always 0.1% v/v (or ˜14 500 μM). In some experiments, inhibitors were added to hMSCs during routine culture, some 24 hours prior to proceeding to the next phase of the analysis, but this pre-treatment was not employed in the hepG2 experiments. […] The importance of precursor ions in the analysis is explained further in the SIFT-MS section below. The method used for the preparation of cell cultures for SIFTMS headspace analysis was adapted from the previous studies published in 2003 (ref. 21) and 2009 (ref. 22). On the evening prior to the analysis, the cells were removed from the tissue culture flasks using trypsin, counted using a haemocytometer, and suspended in fresh DMEM media containing the ALDH inhibitor where appropriate, inside 150 mL glass bottles. […] The headspace of each bottle was purged with dry cylinder air before the bottles were finally sealed with metal caps, which incorporate rubber septa, and placed inside an incubator to be held at 37° C. for around 16 hours/overnight.
# The methodology of SIFT-MS analyses for the sampling and quantification of compounds in the headspace of liquid samples has been described in detail previously (Refs 21,22,27-32). […] The product ions and the precursor ions are then analysed by a quadrupole mass spectrometer/detection system. Throughout the present study the instrument was operated in the multiple ion monitoring (MIM) mode, during which the desired precursor ion and its hydrates (Ref 33) and the characteristic product ions, are continuously monitored. This system, in combination with the previously compiled kinetics data for the reactions between the precursor ions and neutral molecules (Refs 34,35 rapidly allows the simultaneous absolute quantification of the concentrations of several selected volatile compounds of interest. The simultaneous detection and analysis of AA and DMS in a mixture presents a peculiar problem to SIFT-MS because of the overlap of characteristic product ions on which the analysis depends. However, the ion chemistry involved has been studied in detail and the kinetics database entries required for the accurate analyses of these two compounds by SIFT-MS have been constructed by following the guidelines given by previous studies (refs 34,35). In brief, AA was analysed using H3O^+ precursor ions and the unique protonated AA characteristic product ion at m/z 45, as described in detail in a recent paper (Ref 36). […]
# Removal of AA from DMEM medium by cellular action. […] Identical medium samples without cells were also analysed (as described above) to obtain the starting (background) headspace AA concentration. […]
# hMSCs = test: SIFT-MS headspace DMS in hMSC cultures (DMSO reduction to DMS); assay type: cell-based, human; conditions: approximately 5(10^6) hMSCs, 24 hours pre-treatment plus 16 hours sealed incubation, 0.1% v/v DMSO
# Method: (§2) Human mesenchymal stem cells, hMSCs, are a primary cell type, and were isolated from a bone marrow aspirate sample (person; Lonza, US) using the plastic-adherence methodology and the hepG2 cells are of a human hepatocellular carcinoma cell line (Eton Bioscience, US), a cell line commonly used for the study of liver function. In both cases, the cells were cultured to confluence in Dulbecco's modified Eagle's medium (DMEM; Lonza, UK), supplemented with 10% v/v foetal bovine serum (FBS; Lonza, UK), 50 U mL^−1 penicillin-streptomycin (Lonza, UK) and 2 mM L-glutamine (Lonza, UK). The hMSCs additionally contained 1% v/v non-essential amino acids. The hMSCs were not cultured beyond passage number 4, whereas the well-differentiated hepG2 cells were analysed before passage number 20.
# (§3) The inhibitor solutions were then added to volumes of medium so that the final DMSO concentration was always 0.1% v/v (or ˜14 500 μM). […] On the evening prior to the analysis, the cells were removed from the tissue culture flasks using trypsin, counted using a haemocytometer, and suspended in fresh DMEM media containing the ALDH inhibitor where appropriate, inside 150 mL glass bottles. […]
# (§4) The methodology of SIFT-MS analyses for the sampling and quantification of compounds in the headspace of liquid samples has been described in detail previously (Refs 21,22,27-32). […]
# hepG2 cells [2] = test: Live-dead staining viability after sealed bottle incubation; assay type: cell-based, human; conditions: 1.5(10^7) hepG2 cells sealed 16 hours; 200 μM DEAB or 20 μM DSF
# Method: In order to assess any changes in the viability of hepG2 cells due to the method of analysis, which requires the cells to be sealed inside a glass bottle for around 16 hours, cells were cultured to near-confluence using the untreated medium described earlier, and observed using a live-dead staining (Sigma, UK), and confocal microscopy. […] The cell-suspensions were then sealed inside 150 mL glass bottles and incubated at 37° C. for 16 hours. The suspensions were then removed from the bottles and assessed by the same live-dead staining.
# hepG2 cells [3] = test: SIFT-MS headspace DMS in hepG2 cultures (DMSO reduction to DMS); assay type: cell-based, human
# Method: as §2, §1
# (§5) The methodology of SIFT-MS analyses for the sampling and quantification of compounds in the headspace of liquid samples has been described in detail previously (Refs 21,22,27-32). […] The product ions and the precursor ions are then analysed by a quadrupole mass spectrometer/detection system. Throughout the present study the instrument was operated in the multiple ion monitoring (MIM) mode, during which the desired precursor ion and its hydrates (Ref 33) and the characteristic product ions, are continuously monitored. […] In brief, AA was analysed using H3O^+ precursor ions and the unique protonated AA characteristic product ion at m/z 45, as described in detail in a recent paper (Ref 36). […]
# ALDH [4] = test: SIFT-MS headspace acetaldehyde (AA) in hepG2 cultures with ALDH inhibitors; assay type: cell-based, human
# Method: as §2
# as §3, with “μM). In some experiments, inhibitors were added to hMSCs during routine culture, some 24 hours prior to proceeding to the next phase of the analysis, but this pre-treatment was not employed in the hepG2 experiments.” for “μM).”
# as §5
# ALDH [5] = test: SIFT-MS headspace AA in hMSC cultures with ALDH inhibitors; assay type: cell-based, human; conditions: approximately 5(10^6) hMSCs, 24 hours pre-treatment plus 16 hours sealed incubation
# Method: as §2, §3, §4
# [6] = test system: Caco2/TC7 colon tumour cell cultures; conditions: cited from earlier work
# [7] = 200 μM DEAB, about 1(10^7) hepG2 cells, 16 hours
structure (smiles),measurement,setting,value
"CC=O [AA, acetaldehyde]",reduction of headspace AA concentration by cells,"hepG2 cells [1]; 50 mL DMEM, 16 hours at 37° C.",approximately 90%
same,headspace AA concentration after incubation with cells,hepG2 cells [1]; starting 59 ppbv,20 ppbv
same,headspace AA concentration after incubation with cells,hepG2 cells [1]; starting 396 ppbv,48 ppbv
same,headspace AA concentration after incubation with cells,hepG2 cells [1]; starting 990 ppbv,118 ppbv
CCN(CC)c1ccc(C=O)cc1 [DEAB],effect on DMS production from DMSO,hMSCs,effective at preventing DMS production from DMSO
same,viability by live-dead staining,hepG2 cells [2],little or no decline in the viability
same,decline in headspace DMS,"hepG2 cells [3]; 0 to 25 μM DEAB, 1.5(10^7) hepG2 cells, 0.1% v/v DMSO",30%
same,DMS production,"hepG2 cells [3]; 200 μM DEAB, 1(10^4) to 5(10^6) hepG2 cells, 0.1% v/v DMSO",clearly reduced
same,decline of slope of DMS concentration versus cell number,"hepG2 cells [3]; 200 μM DEAB, 5(10^6) up to 3(10^7) hepG2 cells, 0.1% v/v DMSO",about 30%
same,peak AA concentration in the liquid phase,ALDH [4]; [7],4 µM
same,peak headspace AA concentration,ALDH [4]; [7],around 600 ppbv
same,headspace AA concentration with increasing DEAB concentration,"ALDH [4]; 1.5(10^7) hepG2 cells, 16 hours at 37° C., DEAB in 0.1% v/v DMSO",general increase in the AA concentration
same,effect on ALDH / ability of hMSCs to metabolise AA,ALDH [5],effective inhibitor of ALDH
"C[S+](C)[O-] [DMSO, dimethyl sulphoxide]",liquid phase DMS concentration formed from DMSO,"hepG2 cells [3]; 0.1% v/v DMSO in medium, overnight incubation, by Henry's Law",> 300 nM
same,DMSO concentration causing no observable cytotoxicity,[6],up to 10 % (v/v)
